From patent US8557823B2, “Family of PFKFB3 inhibitors with anti-neoplastic activities” (Advanced Cancer Therapeutics, LLC, priority 2007, dated 2013)

Columns and labels:
[1] = test system: PFKFB3+/- ht/LT/ras fibroblasts; test: Growth inhibition of PFKFB3 haplo-insufficient transformed fibroblasts; assay type: cell-based, mice; conditions: Mus musculus, Fibroblast, 48 hours
Description: FIG. 6B is a bar graph showing the anti-proliferative effects of 3PO in fibroblasts from wild-type (+/+) or haplo-insufficient (+/−) PFKFB3 mice which were subsequently immortalized and transformed with human telomerase (ht), large T antigen (LT), and oncogenic H-ras^v12. Cell numbers (expressed as % of cell numbers of control cells) for transformed wild type (+/+) cells are shown in solid bars and numbers for transformed haplo-insufficient (+/−) cells are shown in striped bars. As indicated at the bottom of the graph, cells were incubated with vehicle or increasing amounts of 3PO (5, 10, 20, 30, 40, or 60 μM). Viable cells were counted after 48 hours. The bars represent the mean±STD of triplicate values from a representative experiment. * p-value<0.01 represents statistical difference between vehicle control and 3PO treated samples.
Cells were collected 48 hours post-treatment, and cell number and viability were determined by trypan blue exclusion. IC50 values were calculated as the compound 1 concentration needed for 50% of vehicle treated cell growth.
One of the most difficult challenges of new anti-neoplastic therapies is in situ target validation. To address this question, two different cell lines with varying levels of PFKFB3 expression were studied. […]

[2] = test system: NHBE-ht/LT/ras cells; test: In vitro growth inhibition, transformed NHBE cells; assay type: cell-based, human
Description: The K562, HL-60, MDA-MB231, and melanoma (CRL-11174) human cancer cell lines were purchased from ATCC (American Tissue Type Culture Collection, Manassas, Va., United States of America). HeLa, A549, Lewis Lung Carcinoma, MDA-MB231, and melanoma cells were grown in Dulbecco's Modified Eagle Medium (DMEM) (Hyclone, Logan, Utah, United States of America) supplemented with 10% fetal bovine serum (Hyclone, Logan, Utah, United States of America) and 50 μg/mL gentamicin sulfate (Invitrogen, Carlsbad, Calif., United States of America). The HL-60, K562, and Jurkat cell lines were grown in RPMI-1640 medium (Hyclone, Logan, Utah, United States of America) supplemented with 10% fetal bovine serum and 50 μg/mL gentamicin sulfate. The primary Normal Human Bronchial Epithelial (NHBE) cells and cells that were immortalized with human telomerase (ht) and large T antigen (LT) and transformed with mutated ras (ht/LT/ras cells) were cultured in Bronchial Epithelial Cell Basal Growth Medium (Cambrex, Walkersville, Md., United States of America) supplemented with 52 μg/mL bovine pituitary extract, 0.5 μg/mL hydrocortisone, […], 0.5 μg/mL epinephrine, 10 μg/mL transferrin, 5 μg/mL insulin, 0.1 ng/mL retinoic acid, 6.5 ng/mL triiodothyronine, 50 μg/mL gentamycin, and 50 ng/mL amphotericin-B (SingleQuots, Cambrex, Walkersville, Md., United States of America). All cell lines were maintained under 5% CO2 at 37° C.
All cell lines were plated at 1×10^5 cells/well in the appropriate medium. For suspension cells, increasing concentrations of 1 were added immediately to the medium, whereas, compound 1 treatment was initiated the following day for adherent cell lines. For dose-dependent studies, compound 1 was added in increasing concentrations for 36 hours. For time-dependent studies, 10 μM of compound 1 was added at time 0, 4, 8, 16, 24, or 36 hours. […]
Cells were collected 48 hours post-treatment, and cell number and viability were determined by trypan blue exclusion. […]

[3] = test system: HL-60 leukemia cell xenografts; test: HL-60 leukemia xenografts in Balb/c nude mice; assay type: in vivo; conditions: 0.07 mg/g IP, two daily injections followed by seven days off
Description: FIG. 7C is a graph showing the effects of 3PO treatment on the growth of established HL-60 acute promyelocytic leukemia xenografts in Balb/c athymic mice. Tumors were measured daily using blunt end Vernier calipers, and mice with established tumors (130-190 mg) were blindly randomized into either a DMSO control group (•, n=11) or a 3PO treatment group (∘, n=12). Experimental mice were weighed and given intraperitoneal (i.p.) injections of either 50 μL DMSO or 0.07 mg/g 3PO in 50 μL DMSO according to a cyclical dosing regimen of two sequential daily injections of DMSO or 3PO followed by seven day rest period for the duration of the study (14 days). Arrows (↓) represent control or 3PO administrations. Statistical difference was obtained after initial injection with a p-value<0.0001.
Exponentially growing MDA-MB231 and HL-60 cells were collected in appropriate medium, washed twice and resuspended in PBS at a concentration of 20×10^7 cells/mL. […] Body weight and tumor growth were monitored daily throughout the study. Tumor masses were determined by measurement with Vernier calipers using the formula: mass (mg)=[width (mm^2)×length (mm)]/2. […]
The first tumor model tested consisted of mouse Lewis Lung Carcinoma xenografts grown in C57/Blk6 mice. For this study, mice were given IP injections of either DMSO or the calculated dose of 1 once daily for the duration of the study (14 days). […]

Compound: O=C(/C=C/c1cccnc1)c1ccncc1 [Compound 1, 3-(3-pyridinyl)-1-(4-pyridinyl)-2-propen-1-one]
- IC50 [1]: 26 µM
- IC50 ([2]; Homo sapiens, NHBE, 48 h): 1.5 µM
- concentration at which treatment was completely cytotoxic ([2]; transformed NHBE cells): approximately 10 μM
- concentration at which treatment was cytostatic ([2]; transformed NHBE cells): below 1 μM
- inhibition of tumor growth compared to DMSO controls [3]: > 74%
